Structures are written as SMILES. Like-named read-outs stand apart in the source and are kept apart here.

Data set [1] concerns the target T1, LXRα full length (FL) (Homo sapiens, UniProt Q13133).
T1 construct: the full length (FL) proteins of LXRα (amino acids 1-447); NP005684; expressed in transfected cells; host or cells: HEK293
T1 sequence (Q13133 1-447): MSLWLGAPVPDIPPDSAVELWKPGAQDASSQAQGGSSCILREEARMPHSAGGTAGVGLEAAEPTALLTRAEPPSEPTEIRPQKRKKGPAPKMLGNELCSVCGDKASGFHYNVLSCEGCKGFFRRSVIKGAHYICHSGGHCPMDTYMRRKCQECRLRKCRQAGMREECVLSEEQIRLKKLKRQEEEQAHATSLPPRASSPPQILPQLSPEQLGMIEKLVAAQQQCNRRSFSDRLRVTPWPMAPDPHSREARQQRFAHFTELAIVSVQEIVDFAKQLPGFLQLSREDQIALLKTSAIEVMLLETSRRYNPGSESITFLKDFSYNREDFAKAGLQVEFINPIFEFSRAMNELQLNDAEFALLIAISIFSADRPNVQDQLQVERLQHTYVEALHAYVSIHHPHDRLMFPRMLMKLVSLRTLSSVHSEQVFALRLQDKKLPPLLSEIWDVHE
The data set is described as follows: LXR Gal4 reporter transient transfection assay, mammalian two-hybrid, FL-M2H Gal4α. Type of data set: cell-based. The following applies: HEK293 cells; inverse agonist unless *. Put shortly: (§1)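 Mammalian two-hybrid read-out: interaction of LXRα or LXRβ (full length or ligand-binding domain, NFkB activation-domain fusions) with GAL4-fused SRC1 or NCoR domains drives GAL4-responsive firefly luciferase in HEK293 cells, normalised by Renilla cotransfection. Compounds given 4 h after transfection, ≤0.2% vehicle, cells lysed after 16 h.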

Data set [2] addresses T2, LXRβ full length (FL) (Homo sapiens, UniProt P55055, INS174Q).
T2 construct: the full length (FL) proteins of LXRα (amino acids 1-447); NP005684; NP009052; expressed in transfected cells; host or cells: HEK293
T2 sequence (P55055 with tags, fused parts or gaps INS174Q): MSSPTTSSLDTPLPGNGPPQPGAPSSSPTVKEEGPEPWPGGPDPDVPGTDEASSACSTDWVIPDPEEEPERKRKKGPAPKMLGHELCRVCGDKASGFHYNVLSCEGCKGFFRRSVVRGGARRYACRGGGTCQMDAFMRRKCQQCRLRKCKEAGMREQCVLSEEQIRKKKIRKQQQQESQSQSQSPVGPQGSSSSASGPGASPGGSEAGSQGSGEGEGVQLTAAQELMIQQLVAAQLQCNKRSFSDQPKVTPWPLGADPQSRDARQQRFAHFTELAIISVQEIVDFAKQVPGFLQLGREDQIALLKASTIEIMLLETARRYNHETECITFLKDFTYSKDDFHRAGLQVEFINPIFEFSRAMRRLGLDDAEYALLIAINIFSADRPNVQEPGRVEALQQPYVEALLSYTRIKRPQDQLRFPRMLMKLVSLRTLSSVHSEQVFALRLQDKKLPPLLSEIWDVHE
The experiment in a line: LXR Gal4 reporter transient transfection assay, mammalian two-hybrid, FL-M2H Gal4β. Type of data set: cell-based. The following applies: HEK293 cells; inverse agonist unless *. Put shortly: as §1

A short description of data set [3]: Short term HFD mouse model: liver and plasma exposure after multiple oral dosing. The data set is classed as in vivo, mice (C57BL/6J). To be noted: C57BL/6J, HFD mice, 4 h after final dose; for Kp at 4 h: liver/plasma, read-out: liver/plasma ratio, 4 h. An excerpt:
Short Term HFD Mouse Model:
For this, C57BL/6J were purchased from Elevage Janvier (Rennes, France) at the age of 8 weeks. After an acclimation period of two weeks, animals were prefed on a high fat diet (HFD) (Ssniff Spezialdiäten GmbH, Germany, Surwit EF D12330 mod, Cat. No. E15771-34), with 60 kcal % from fat plus 1% (w/w) extra cholesterol (Sigma-Aldrich, St. Louis, Mo.) for 5 days. Animals were maintained on this diet during treatment with LXR modulators. The test compounds were formulated in 0.5% hydroxypropylmethylcellulose (HPMC) and administered in three doses (from 1.5 to 20 mg/kg each) by oral gavage according to the following schedule: on day one, animals received treatment in the morning and the evening (ca. 17:00), on day two animals received the final treatment in the morning after a 4 h fast and were sacrificed 4 h thereafter. Animal work was conducted according to the national guidelines for animal care in Germany.
Multiple oral dosing of compounds from the present invention in mice lead to a high liver exposure with a favourable liver to plasma ratio. […] These genes are related to hepatic de-novo lipogenesis. A suppression of these genes will reduce liver fat (liver triglycerides).

Setting [4] is: liver, three oral doses of 10 mg/kg each, read-out: liver exposure, 4 h.
The mark [5] stands for this setting: three oral doses of 10 mg/kg each.
[6] abbreviates: plasma, three oral doses of 10 mg/kg each, read-out: plasma exposure, 4 h.

The EC50 is the concentration that produces a half-maximal response. A lower EC50 goes with higher potency in that assay. As to `COc1c(C)nc2ccccc2c1C(=O)N(Cc1ccc(-c2cccc(C(C)(C)C(=O)O)c2)cc1)Cc1ccc(C(F)(F)F)o1` [27/81], the EC50 in data set [1] and in data set [2] was under 100 nM each time. Moreover, the figures for the concentration at 4 h in data set [3] (setting [4]) and in data set [3] (setting [6]) were 43.2 µM and 0.849 µM, respectively. Further, the Kp at 4 h in data set [3] (setting [5]) came to 50.8.

For the compound `Cc1nc2cccnc2c(C(=O)N(Cc2ccc(-c3cccc(C(C)(C)C(=O)O)c3)cc2)Cc2ccc(C(F)(F)F)o2)c1C` [27/93], the EC50 in data set [1] and in data set [2] was under 100 nM each time. Further, the concentration at 4 h in data set [3] (setting [4]) was 155 µM; in data set [3] (setting [6]), 2.1 µM. Besides, the Kp at 4 h in data set [3] (setting [5]) came to 73.7.

For `Cc1ccc2ccccc2c1CN(Cc1ccc(-c2cccc(C(C)(C)C(=O)O)c2)cc1)Cc1ccc(C(F)(F)F)o1` [Example 24, 2-Methyl-2-(4′-((((2-methylnaphthalen-1-yl)methyl)((5-(trifluoromethyl)furan-2-yl)methyl)amino)methyl)-[1,1′-biphenyl]-3-yl)propanoic acid], the EC50 in data set [1] and in data set [2] was under 100 nM throughout. Besides, the concentration at 4 h in data set [3] (liver, three oral doses of 5 mg/kg each, read-out: liver exposure, 4 h) turned out to be 2.6 µM; in data set [3] (liver, three oral doses of 20 mg/kg each, read-out: liver exposure, 4 h), 8.93 µM; in data set [3] (plasma, three oral doses of 5 mg/kg each, read-out: plasma exposure, 4 h) it was 0.893 µM; in data set [3] (plasma, three oral doses of 20 mg/kg each, read-out: plasma exposure, 4 h), 3.52 µM. In addition, the results for the Kp at 4 h in data set [3] (three oral doses of 5 mg/kg each) and in data set [3] (three oral doses of 20 mg/kg each) were 2.9 and 2.5, respectively.

Source of the values: patent US20200131144A1, “AMINE OR (THIO)AMIDE CONTAINING LXR MODULATORS” (Phenex-FXR GmbH, priority 2017, published 2020).
